Test results reported in paper PMC6286779, “HLA-A2-Restricted Epitopes Identified from MTA1 Could Elicit Antigen-Specific Cytotoxic T Lymphocyte Response” (Journal of Immunology Research, 2018).
Each block holds one sequence with its values, some of them ahead of it.

Legend:
[1] = test system: MDA-MB-231 (HLA-A2+, MTA1+); test: LDH cytotoxicity assay, CTLs induced in vitro; format: cell-based, human; conditions: CTLs induced by peptide 10 μg/ml from donor no. 6; E/T 50 : 1; LDH release, 4 h; n = 3
Experimental: (§1) CTL induction in vitro was conducted according to the procedures previously described. Briefly, PBMCs from eight HLA-A^∗02^+ healthy donors were isolated using Ficoll-Paque density gradient centrifugation and resuspended in RPMI 1640 medium supplemented with 10% FBS. Then, PBMCs were stimulated three times (once a week) with the indicated peptides (10 μg/ml) or protein MTA1(1–283) (at final concentrations of 0, 1, 10, 30, and 50 μg/ml) for 21 days. Human recombinant cytokine interleukin-2 (IL-2) (50 U/ml) was added on day 3 and 1 day after each stimulation. The cytotoxic assay (lactate dehydrogenase (LDH) assay) and IFN-γ secretion enzyme-linked immunospot (ELISPOT) assay were performed on day 21.
(§2) Cytotoxic activity of induced T cells was tested based on the quantitation of LDH release using the nonradioactive cytotoxicity assay kit (Promega, USA) at the gradient E/T ratio [29, 31]. Target cells which expressed different levels of MTA1 or peptide-pulsed T2 cells were used as target cells. The anti-human HLA-A2 antibody (BB7.2) was added 30 min before adding effector cells to determine the HLA restriction. Target cells (5 × 10^3/well) were cocultured with the effector cells at 37°C for 4 h. The percentage of specific lysis of the target cells was determined using the equation: percentage of specific lysis = [(experimental release − effector spontaneous release − target spontaneous release)/(target maximum release − target spontaneous release)] × 100.

SW620 (HLA-A2+, MTA1+) = test: LDH cytotoxicity assay, CTLs induced in vitro; format: cell-based, human; conditions: CTLs induced by peptide 10 μg/ml from donor no. 6; E/T 50 : 1; LDH release, 4 h; n = 3
Experimental: as §1, §2

MCF-7 (HLA-A2+, MTA1+) = test: LDH cytotoxicity assay, CTLs induced in vitro; format: cell-based, human; conditions: peptide-induced CTLs from healthy donors, E/T 50 : 1
Experimental: as §1, §2

HT-29 (HLA-A2−, MTA1+) = test: LDH cytotoxicity assay, CTLs induced in vitro; format: cell-based, human; conditions: peptide-induced CTLs, HLA-A2-negative control target
Experimental: as §1, §2

[2] = test system: PBMCs from HLA-A*02+ healthy donors; test: IFN-γ ELISPOT of CTLs induced in vitro; format: cell-based, human; conditions: PBMCs of six donors stimulated with peptide 10 μg/ml three times, day 21; stimulators peptide-pulsed T2 cells (50 μg/ml); 1 × 10^5 effectors; mean, n = 6
Experimental: as §1
(§3) The ELISPOT assay was performed using a commercial kit (Dakewe, China) according to the procedures previously described. Briefly, T2 cells incubated with/without candidate peptide (50 μg/ml) were used as the stimulating cells, effector cells (1 × 10^5) and stimulator cells (peptide-pulsed T2 cells or T2 cells only, 1 × 10^5) were seeded into the 96-well plate precoated with an anti-human (or anti-mouse) IFN-γ antibody. After incubation at 37°C for 18 h, cells were removed, and plates were processed for analysis as instructed. The spot number was determined automatically using a computer-assisted spot analyzer (Dakewe, China).

[3] = test system: SW620 incubated with an anti-human HLA-A2 antibody; test: LDH cytotoxicity assay, CTLs induced in vitro, HLA-A2 blocked; format: cell-based; conditions: peptide-induced CTLs, BB7.2 added 30 min before effectors
Experimental: as §1, §2

[4] = test system: HLA-A2.1/K^b transgenic mice; test: IFN-γ ELISPOT of CTLs induced in HLA-A2.1/Kb transgenic mice; format: in vivo; conditions: HLA-A2.1/Kb transgenic mice immunized with peptide; stimulators peptide-pulsed T2 cells
Experimental: (§4) In vivo induction of peptide-specific CTLs was performed as previously described. Briefly, peptide (100 μg) and the IA^b-restricted HBV-core128 T helper epitope (140 μg) emulsified in incomplete Freund's adjuvant (IFA) were used to subcutaneously immunize at the base of the tail of HLA-A2.1/K^b transgenic mice three times on days 0, 5, and 10. On day 11, all mice were sacrificed through cervical dislocation. Spleen lymphocytes were isolated and restimulated once with 10 μg/ml peptide and 10 U/ml mIL-2 in vitro for an additional 6 days. LDH and IFN-γ ELISPOT assays were performed on day 6 after in vitro stimulation. E/T ratios used in the LDH assay were 20 : 1, 40 : 1, and 80 : 1.
as §3

[5] = test system: T2 cells pulsed with each peptide; test: LDH cytotoxicity assay, CTLs induced in HLA-A2.1/Kb transgenic mice; format: in vivo, human; conditions: 100 μg peptide + 140 μg T helper epitope in IFA s.c. days 0, 5, 10, splenocytes restimulated 6 days, E/T 50 : 1, n = 5
Experimental: as §4, with “E/T ratios used in the LDH assay were 20 : 1, 40 : 1, and 80 : 1.” left out
as §2

[6] = target: T1, peptide/HLA-A*0201 complexes (Homo sapiens, UniProt P04439, D140Y/D185E/D98H/E176V/E277Q/G131W/G231S/I119V/I121R/I166T/I218V/L300P/L318F/N151K/N90K/P208A/P217A/Q86G/Q94H/R138H/R169H/T345S); test: T2 stabilization (stability) assay; format: binding; conditions: T2 cells, peptide 50 μg/ml, 18 h, then brefeldin A 10 μg/ml 1 h; read at 0, 2, 4, 6 h, 37°C; flow cytometry
T1 construct: endogenous in cells; host or cells: T2 lymphoblastic cell line (TAP-deficient)
Experimental: For the stability assay, each of the selected peptides (50 μg/ml) was incubated with T2 cells (1 × 10^6 cells/ml) for 18 h in serum-free RPMI 1640 medium supplemented with 3 μg/ml β2-M at 37°C. Thereafter, cells were washed twice and incubated with brefeldin A (10 μg/ml, eBiosciences, USA) for 1 h. Subsequently, the cells were washed and incubated for 0, 2, 4, and 6 h at 37°C. Cells were washed twice, stained with BB7.2 for 0.5 h at 4°C. Finally, cells were collected, washed, and analyzed by flow cytometry. Dissociation complex 50 (DC50) was defined as time (t) required for the loss of 50% of the HLA-A^∗0201/peptide complexes stabilized at 0 h.

- DC50: time required for the loss of 50% of the HLA-A*0201/peptide complexes stabilized at 0 h [6]: >2 h
Sequence: YLIRRIEEL [Peptide P22]
- lysis rate of MDA-MB-231 cells [1]: 24.8%
- lysis rate of SW620 cells (SW620 (HLA-A2+, MTA1+)): 71.4%
- rate of MCF-7 cell lysis (MCF-7 (HLA-A2+, MTA1+)): 16.0%
- lysis of HT-29 cells (HT-29 (HLA-A2−, MTA1+)): did not lyse
- IFN-γ ELISPOT mean spot intensities [2]: 566
- lysis of SW620 cells incubated with an HLA-A2 blocking antibody [3]: did not lyse
- IFN-γ production, ELISPOT, CTLs induced in vivo [4]: greater production of IFN-γ compared with the other peptides
- lysis rate of peptide-pulsed T2 target cells, CTLs induced in vivo [5]: 22.43%

- DC50: time required for the loss of 50% of the HLA-A*0201/peptide complexes stabilized at 0 h [6]: >6 h
Sequence: TLLNETESL [Peptide P129]
- lysis rate of MDA-MB-231 cells [1]: 14.1%
- lysis rate of SW620 cells (SW620 (HLA-A2+, MTA1+)): 38.4%
- rate of MCF-7 cell lysis (MCF-7 (HLA-A2+, MTA1+)): 9.34%
- lysis of HT-29 cells (HT-29 (HLA-A2−, MTA1+)): did not lyse
- IFN-γ ELISPOT mean spot intensities [2]: 411
- lysis of SW620 cells incubated with an HLA-A2 blocking antibody [3]: did not lyse
- IFN-γ production, ELISPOT, CTLs induced in vivo [4]: greater production of IFN-γ compared with the other peptides
- lysis rate of peptide-pulsed T2 target cells, CTLs induced in vivo [5]: 31.6%
